From US20210346329A1, “TCA CYCLE INTERMEDIATES AND METHODS OF USE THEREOF” (IMBRIA PHARMACEUTICALS, INC., priority 2018, published 2021)
Values joined by “and” are separate entries in the source; they are usually repeats but may differ in a detail not shown here. Equal entries are not always repeated. Where two headings read alike, the source gives them in different places.

Text: Concentrations versus time data are plotted in FIG. 1 through FIG. 6.
[1] = SC 10 mg/kg, individual rat (777)
[2] = SC 10 mg/kg, individual rats 776, 777, 778, 10 mg/kg
[3] = SC 50 mg/kg, individual rats 779, 780, 781, 50 mg/kg
[4] = SC 100 mg/kg, individual rats 782, 783, 784, 100 mg/kg
[5] = SC 100 mg/kg, individual rats 782, 783, 100 mg/kg

Time post dosing at which maximum plasma concentrations were observed (SC 10 mg/kg): 15 min
Plasma concentration (SC 10 mg/kg, 0.50 hr, individual rats 776, 777, 778, 10 mg/kg): 1280 ng/mL (2×) and 854 ng/mL
Plasma concentration (SC 10 mg/kg, 0.50 hr, mean): 1138 ng/mL
Plasma concentration (SC 10 mg/kg, 1.0 hr, individual rats 776, 777, 778, 10 mg/kg): 430 ng/mL and 220 ng/mL and 415 ng/mL
Plasma concentration (SC 10 mg/kg, 1.0 hr, mean): 355 ng/mL
Plasma concentration (SC 10 mg/kg, 2.0 hr, individual rats 776, 777, 778, 10 mg/kg): 28.5 ng/mL and 10.6 ng/mL and 23.2 ng/mL
Plasma concentration (SC 10 mg/kg, 2.0 hr, mean): 20.8 ng/mL
Plasma concentration (SC 10 mg/kg, 4.0 hr, mean): 7.59 ng/mL
AUC∞ [1]: 1030 ng·h/mL
Dose-normalized AUC∞ [1]: 103 kg·ng·h/mL/mg
t1/2 [1]: 27.2 min
tmax (SC 10 mg/kg, individual rats 776, 777, 778): 15 min
Bioavailability (SC 10 mg/kg, individual rats 776, 777, 778, vs average IV dose-normalized AUClast, 10 mg/kg): 98.9% and 47.7% and 76.7%
Cmax [2]: 5090 ng/mL and 2090 ng/mL and 3260 ng/mL
MRTlast [2]: 30.2 min and 29.3 min and 31.6 min
AUClast (SC 10 mg/kg, mean): 1604 ng·h/mL
Cmax (SC 10 mg/kg, mean): 3480 ± 1512 ng/mL
MRTlast (SC 10 mg/kg, mean): 30.4 min
tmax (SC 10 mg/kg, mean): 15 min
Bioavailability (SC 10 mg/kg, mean, vs average IV dose-normalized AUClast): 74.4±25.7%
Dose-normalized AUClast (SC 10 mg/kg, mean, 10 mg/kg): 160 ± 55.4 kg·ng·h/mL/mg
Dose-normalized AUClast (SC 10 mg/kg, mean, listed as 13C4-Succinate, 10 mg/kg): 160 kg·ng·h/mL/mg
Time post dosing at which maximum plasma concentrations were observed (SC 50 mg/kg): 15 min
Plasma concentration (SC 50 mg/kg, 0.50 hr, mean): 12117 ng/mL
Plasma concentration (SC 50 mg/kg, 1.0 hr, individual rats 779, 780, 781, 50 mg/kg): 1020 ng/mL and 2420 ng/mL and 2020 ng/mL
Plasma concentration (SC 50 mg/kg, 1.0 hr, mean): 1820 ng/mL
Plasma concentration (SC 50 mg/kg, 2.0 hr, individual rats 779, 780, 781, 50 mg/kg): 102 ng/mL and 163 ng/mL and 122 ng/mL
Plasma concentration (SC 50 mg/kg, 2.0 hr, mean): 129 ng/mL
Plasma concentration (SC 50 mg/kg, 4.0 hr, individual rats 779, 780, 781, 50 mg/kg): 15.1 ng/mL and 10.3 ng/mL and 12.3 ng/mL
Plasma concentration (SC 50 mg/kg, 4.0 hr, mean): 12.6 ng/mL
Plasma concentration (SC 50 mg/kg, 8.0 hr, mean): 18.8 ng/mL
tmax (SC 50 mg/kg, individual rats 779, 780, 781): 15 min
Bioavailability (SC 50 mg/kg, individual rats 779, 780, 781, vs average IV dose-normalized AUClast, 50 mg/kg): 78.0% and 116% and 98.7%
MRTlast [3]: 33.5 min and 31.8 min and 30.3 min
AUClast (SC 50 mg/kg, mean): 10511 ng·h/mL
Cmax (SC 50 mg/kg, mean): 17333 ± 2214 ng/mL
MRTlast (SC 50 mg/kg, mean): 31.9 min
tmax (SC 50 mg/kg, mean): 15 min
Bioavailability (SC 50 mg/kg, mean, vs average IV dose-normalized AUClast): 97.6±19.0%
Dose-normalized AUClast (SC 50 mg/kg, mean, 50 mg/kg): 210 ± 41.0 kg·ng·h/mL/mg
Dose-normalized AUClast (SC 50 mg/kg, mean, listed as 13C4-Succinate, 50 mg/kg): 210 kg·ng·h/mL/mg
Time post dosing at which maximum plasma concentrations were observed (SC 100 mg/kg): 15 min
Plasma concentration (SC 100 mg/kg, 0.50 hr, mean): 21200 ng/mL
Plasma concentration (SC 100 mg/kg, 1.0 hr, individual rats 782, 783, 784, 100 mg/kg): 6840 ng/mL and 4980 ng/mL and 7750 ng/mL
Plasma concentration (SC 100 mg/kg, 1.0 hr, mean): 6523 ng/mL
Plasma concentration (SC 100 mg/kg, 2.0 hr, individual rats 782, 783, 784, 100 mg/kg): 364 ng/mL and 435 ng/mL and 779 ng/mL
Plasma concentration (SC 100 mg/kg, 2.0 hr, mean): 526 ng/mL
Plasma concentration (SC 100 mg/kg, 4.0 hr, individual rats 782, 783, 784, 100 mg/kg): 103 ng/mL and 40.8 ng/mL and 52.9 ng/mL
Plasma concentration (SC 100 mg/kg, 4.0 hr, mean): 65.6 ng/mL
Plasma concentration (SC 100 mg/kg, 8.0 hr, mean): 25.9 ng/mL
tmax (SC 100 mg/kg, individual rats 782, 783, 784): 15 min
Bioavailability (SC 100 mg/kg, individual rats 782, 783, 784, vs average IV dose-normalized AUClast, 100 mg/kg): 115% (2×) and 72.0%
MRTlast [4]: 35.8 min and 37.7 min and 39.6 min
AUC∞ [5]: 24719 ng·h/mL and 15530 ng·h/mL
t1/2 [5]: 84 min and 44.8 min
AUClast (SC 100 mg/kg, mean): 21630 ng·h/mL
AUC∞ (SC 100 mg/kg, mean): 20124 ng·h/mL
Cmax (SC 100 mg/kg, mean): 31000 ± 7451 ng/mL
Dose-normalized AUC∞ (SC 100 mg/kg, mean): 201 kg·ng·h/mL/mg
MRTlast (SC 100 mg/kg, mean): 37.7 min
t1/2 (SC 100 mg/kg, mean): 64.2 min
tmax (SC 100 mg/kg, mean): 15 min
Bioavailability (SC 100 mg/kg, mean, vs average IV dose-normalized AUClast): 100±24.6%
Dose-normalized AUClast (SC 100 mg/kg, mean, 100 mg/kg): 216 ± 52.9 kg·ng·h/mL/mg
Dose-normalized AUClast (SC 100 mg/kg, mean, listed as 13C4-Succinate, 100 mg/kg): 216 kg·ng·h/mL/mg
Structure (SMILES): O=[13C](O)[13CH2][13CH2][13C](=O)O [^13C4-succinate]
AUClast [2]: 2131 ng·h/mL and 1027 ng·h/mL and 1653 ng·h/mL
Plasma concentration (SC 50 mg/kg, 0.50 hr, individual rats 779, 780, 781, 50 mg/kg): 9750 ng/mL and 15500 ng/mL and 11100 ng/mL
AUClast [3]: 8405 ng·h/mL and 12496 ng·h/mL and 10632 ng·h/mL
Cmax [3]: 14800 ng/mL and 18300 ng/mL and 18900 ng/mL
Dose-normalized AUClast [3]: 168 kg·ng·h/mL/mg and 250 kg·ng·h/mL/mg and 213 kg·ng·h/mL/mg
Plasma concentration (SC 100 mg/kg, 0.50 hr, individual rats 782, 783, 784, 100 mg/kg): 24500 ng/mL and 13900 ng/mL and 25200 ng/mL
AUClast [4]: 24683 ng·h/mL and 15518 ng·h/mL and 24689 ng·h/mL
Cmax [4]: 37900 ng/mL and 23100 ng/mL and 32000 ng/mL
Dose-normalized AUClast [4]: 247 hr · kg · ng/mL/mg (2×) and 155 hr · kg · ng/mL/mg
Dose-normalized AUC∞ [5]: 247 kg·ng·h/mL/mg and 155 kg·ng·h/mL/mg
Change of exposure with increasing dose (SC 10, 50 and 100 mg/kg): nonlinear increase in exposure with increasing dose
Adverse reactions (subcutaneous dosing, 10, 50 and 100 mg/kg): No adverse reactions were observed
